{"source": "ChEMBL document CHEMBL5154721", "about": "“Discovery of HDAC6-Selective Inhibitor NN-390 with in Vitro Efficacy in Group 3 Medulloblastoma” (J Med Chem, 2022)", "key": {"MV4-11 [1]": {"tested_on": "MV4-11", "assay": "Induction of apoptosis in human MV4-11 cells assessed as late apoptotic cells at 2 uM after 24 hrs by Annexin V/PI staining based flow cytometric analysis (Rvb=2%)", "type": "functional"}, "MM1.S": {"tested_on": "MM1.S", "assay": "Cytotoxicity against human MM1.S cells assessed as inhibition of cell growth incubated for 72 hrs measured by spectrophotometer analysis", "type": "functional, cell-based"}, "[2]": {"biological_target": "T1, Protein deacetylase HDAC6 (Homo sapiens) (UniProt Q9UBN7)", "T1 sequence (whole entry)": "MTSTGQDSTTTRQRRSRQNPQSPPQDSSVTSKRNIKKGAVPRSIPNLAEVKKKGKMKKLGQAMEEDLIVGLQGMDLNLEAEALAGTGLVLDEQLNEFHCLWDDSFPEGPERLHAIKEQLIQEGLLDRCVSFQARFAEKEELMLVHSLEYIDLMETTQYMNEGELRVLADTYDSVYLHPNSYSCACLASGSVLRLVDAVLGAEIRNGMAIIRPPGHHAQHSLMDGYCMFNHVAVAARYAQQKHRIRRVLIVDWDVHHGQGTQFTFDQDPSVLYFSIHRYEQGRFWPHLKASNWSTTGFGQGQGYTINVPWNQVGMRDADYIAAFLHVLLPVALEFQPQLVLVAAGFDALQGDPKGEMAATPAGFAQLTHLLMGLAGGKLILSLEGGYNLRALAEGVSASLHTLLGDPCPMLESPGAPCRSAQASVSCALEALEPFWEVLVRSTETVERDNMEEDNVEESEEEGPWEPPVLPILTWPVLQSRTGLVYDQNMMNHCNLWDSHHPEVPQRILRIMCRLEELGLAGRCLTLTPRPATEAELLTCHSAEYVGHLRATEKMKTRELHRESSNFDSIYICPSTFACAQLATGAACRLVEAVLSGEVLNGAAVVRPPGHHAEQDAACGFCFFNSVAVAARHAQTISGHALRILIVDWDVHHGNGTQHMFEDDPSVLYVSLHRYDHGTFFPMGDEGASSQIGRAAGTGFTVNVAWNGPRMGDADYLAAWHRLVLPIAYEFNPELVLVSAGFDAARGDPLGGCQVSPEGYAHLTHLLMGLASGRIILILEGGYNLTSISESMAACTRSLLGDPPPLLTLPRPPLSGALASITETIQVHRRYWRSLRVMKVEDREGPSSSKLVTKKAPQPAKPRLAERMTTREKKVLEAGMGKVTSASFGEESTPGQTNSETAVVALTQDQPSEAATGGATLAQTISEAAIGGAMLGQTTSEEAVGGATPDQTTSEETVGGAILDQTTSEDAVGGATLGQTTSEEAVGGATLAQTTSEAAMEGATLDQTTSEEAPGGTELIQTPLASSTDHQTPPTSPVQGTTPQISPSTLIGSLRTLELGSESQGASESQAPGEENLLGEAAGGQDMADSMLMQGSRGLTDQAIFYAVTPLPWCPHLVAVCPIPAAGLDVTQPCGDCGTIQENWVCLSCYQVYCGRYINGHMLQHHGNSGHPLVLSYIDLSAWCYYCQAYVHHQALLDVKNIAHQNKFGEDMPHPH", "assay": "Inhibition of full length human recombinant HDAC6 in human MV4-11 cells assessed as acetylation of histone H3 at 5 uM by Western blot analysis", "type": "cell-based", "details": "time 6.0 hrs"}, "MV4-11 [3]": {"tested_on": "MV4-11", "assay": "Induction of apoptosis in human MV4-11 cells assessed as late apoptotic cells at 1 uM after 24 hrs by Annexin V/PI staining based flow cytometric analysis (Rvb=2%)", "type": "functional"}, "[4]": {"biological_target": "T1, Protein deacetylase HDAC6 (Homo sapiens)", "assay": "Potency index, ratio of test compound residence time to ricolinostat residence time in full length HDAC6-NanoLuc fusion protein (unknown origin) expressed in HeLa cells by NanoBRET assay", "type": "cell-based"}, "MV4-11 [5]": {"tested_on": "MV4-11", "assay": "Induction of apoptosis in human MV4-11 cells assessed as late apoptotic cells at 0.75 uM after 24 hrs by Annexin V/PI staining based flow cytometric analysis (Rvb=2%)", "type": "functional"}, "[6]": {"biological_target": "T1, Protein deacetylase HDAC6 (Homo sapiens)", "assay": "Potency index, ratio of test compound residence time to KT-531 residence time in full length HDAC6-NanoLuc fusion protein (unknown origin) expressed in HeLa cells by NanoBRET assay", "type": "cell-based", "details": "time 5.0 min"}, "[7]": {"biological_target": "T2, Polyamine deacetylase HDAC10 (Homo sapiens, UniProt Q969S8)", "T2 sequence (Q969S8 whole entry)": "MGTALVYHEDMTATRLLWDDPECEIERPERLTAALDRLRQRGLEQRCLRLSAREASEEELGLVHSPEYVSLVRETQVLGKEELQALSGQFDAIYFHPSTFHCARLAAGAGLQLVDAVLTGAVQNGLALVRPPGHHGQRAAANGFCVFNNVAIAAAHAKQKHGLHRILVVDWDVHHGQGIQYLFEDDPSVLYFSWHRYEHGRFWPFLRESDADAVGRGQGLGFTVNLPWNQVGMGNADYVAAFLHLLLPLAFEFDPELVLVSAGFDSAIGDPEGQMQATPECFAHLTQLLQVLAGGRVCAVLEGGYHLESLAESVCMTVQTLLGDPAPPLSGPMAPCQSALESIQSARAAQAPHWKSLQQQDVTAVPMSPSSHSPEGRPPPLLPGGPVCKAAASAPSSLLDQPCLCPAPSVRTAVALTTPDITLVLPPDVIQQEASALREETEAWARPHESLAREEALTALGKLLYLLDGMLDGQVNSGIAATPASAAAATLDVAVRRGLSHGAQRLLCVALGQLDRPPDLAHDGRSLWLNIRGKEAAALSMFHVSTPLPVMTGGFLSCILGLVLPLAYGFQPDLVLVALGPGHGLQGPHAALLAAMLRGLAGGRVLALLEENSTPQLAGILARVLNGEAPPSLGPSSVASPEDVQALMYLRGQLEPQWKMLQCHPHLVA", "assay": "Inhibition of full length human recombinant HDAC10 expressed in Sf9 baculovirus system using FAM-labeled acetylated peptide as substrate by measuring fluorescence intensity"}, "Histone deacetylase 4": {"biological_target": "Histone deacetylase 4 (Homo sapiens, UniProt P56524)", "sequence (P56524 whole entry)": "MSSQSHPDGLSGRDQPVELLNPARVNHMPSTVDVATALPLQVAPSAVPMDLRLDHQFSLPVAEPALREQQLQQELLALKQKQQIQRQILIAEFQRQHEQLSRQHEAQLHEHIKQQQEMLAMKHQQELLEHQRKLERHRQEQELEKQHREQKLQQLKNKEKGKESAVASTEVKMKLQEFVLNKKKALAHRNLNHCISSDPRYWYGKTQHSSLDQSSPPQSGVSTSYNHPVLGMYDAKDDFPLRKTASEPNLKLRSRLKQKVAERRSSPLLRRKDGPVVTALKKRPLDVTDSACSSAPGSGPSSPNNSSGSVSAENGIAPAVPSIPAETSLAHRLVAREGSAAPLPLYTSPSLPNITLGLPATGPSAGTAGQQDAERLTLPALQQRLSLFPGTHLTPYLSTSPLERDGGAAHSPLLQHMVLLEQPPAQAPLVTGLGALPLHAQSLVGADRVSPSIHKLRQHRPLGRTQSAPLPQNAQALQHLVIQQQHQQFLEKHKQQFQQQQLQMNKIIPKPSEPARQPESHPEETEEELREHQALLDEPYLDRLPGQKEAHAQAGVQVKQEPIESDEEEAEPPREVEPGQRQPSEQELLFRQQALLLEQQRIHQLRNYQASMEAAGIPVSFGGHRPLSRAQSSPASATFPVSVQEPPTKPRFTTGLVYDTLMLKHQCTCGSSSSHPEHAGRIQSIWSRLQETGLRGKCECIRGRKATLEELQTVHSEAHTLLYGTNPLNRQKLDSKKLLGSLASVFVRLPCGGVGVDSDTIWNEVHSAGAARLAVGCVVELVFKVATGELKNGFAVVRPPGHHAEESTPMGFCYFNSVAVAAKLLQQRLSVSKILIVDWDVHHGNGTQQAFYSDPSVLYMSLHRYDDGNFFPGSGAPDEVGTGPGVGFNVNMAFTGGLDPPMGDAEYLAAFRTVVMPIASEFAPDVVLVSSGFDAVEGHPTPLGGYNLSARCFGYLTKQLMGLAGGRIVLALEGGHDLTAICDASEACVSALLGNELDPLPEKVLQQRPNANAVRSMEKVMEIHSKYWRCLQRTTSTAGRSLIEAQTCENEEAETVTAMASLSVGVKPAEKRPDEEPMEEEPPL", "assay": "Inhibition of full length human recombinant HDAC4 expressed in Sf9 baculovirus system using FAM-labeled acetylated peptide as substrate by measuring fluorescence intensity by EMSA method"}, "MV4-11 [8]": {"tested_on": "MV4-11", "assay": "Induction of apoptosis in human MV4-11 cells assessed as early apoptotic cells at 0.25 uM after 24 hrs by Annexin V/PI staining based flow cytometric analysis (Rvb=2%)", "type": "functional"}, "[9]": {"assay": "Dissociation constant, pKa of compound", "type": "physicochemical"}, "MV4-11 [10]": {"tested_on": "MV4-11", "assay": "cells", "type": "functional, cell-based", "details": "Homo sapiens, MV4-11, 72 h"}, "MB002": {"tested_on": "MB002", "assay": "Cytotoxicity against refractory human group 3 SU_MB002 cells", "type": "functional, cell-based"}, "MV4-11 [11]": {"tested_on": "MV4-11", "assay": "Induction of apoptosis in human MV4-11 cells assessed as early apoptotic cells at 0.75 uM after 24 hrs by Annexin V/PI staining based flow cytometric analysis (Rvb=2%)", "type": "functional"}, "MV4-11 [12]": {"tested_on": "MV4-11", "assay": "Induction of apoptosis in human MV4-11 cells assessed as early apoptotic cells at 2 uM after 24 hrs by Annexin V/PI staining based flow cytometric analysis (Rvb=2%)", "type": "functional"}, "MV4-11 [13]": {"tested_on": "MV4-11", "assay": "Induction of apoptosis in human MV4-11 cells assessed as late apoptotic cells at 0.25 uM after 24 hrs by Annexin V/PI staining based flow cytometric analysis (Rvb=8.13%)", "type": "functional"}}, "note": "Calls of active or inactive are those of the source. The calls are words filed in the database; no cut-off is given here."}
{"smiles": "CC(C)N(Cc1ccc(C(=O)NO)cc1)S(=O)(=O)c1cc(F)c(F)c(F)c1F", "values": [{"measurement": "Activity", "setting": "MV4-11 [1]", "result": 23.4, "unit": "%"}, {"measurement": "IC50", "setting": "MM1.S", "result": 1380, "unit": "nM"}, {"measurement": "inhibition", "setting": "[2]", "result": "Active"}, {"measurement": "Activity", "setting": "MV4-11 [3]", "result": 10.88, "unit": "%"}, {"measurement": "fold change (FC)", "setting": "[4]", "result": 2}, {"measurement": "Activity", "setting": "MV4-11 [5]", "result": 7.81, "unit": "%"}, {"measurement": "fold change (FC)", "setting": "[6]", "result": 1.9}, {"measurement": "IC50", "setting": "[7]", "result": "> 5", "unit": "µM"}, {"measurement": "IC50", "setting": "Histone deacetylase 4", "result": "> 4", "unit": "µM"}, {"measurement": "Activity", "setting": "MV4-11 [8]", "result": 3.6, "unit": "%"}, {"measurement": "pKa", "setting": "[9]", "result": 8.77}, {"measurement": "IC50", "setting": "MV4-11 [10]", "result": 1190, "unit": "nM"}, {"measurement": "Activity", "setting": "MB002", "result": "Active"}, {"measurement": "Activity", "setting": "MV4-11 [11]", "result": 2.28, "unit": "%"}, {"measurement": "Activity", "setting": "MV4-11 [12]", "result": 3.59, "unit": "%"}, {"measurement": "Activity", "setting": "MV4-11 [13]", "result": 9, "unit": "%"}]}
